Usually IC50 stands for the concentration needed to halve the response being measured. Higher therefore signals weaker potency in that assay.

Experimental findings from ChEMBL document CHEMBL1158077, “Microbial transformation and butyrylcholinesterase inhibitory activity of (-)-caryophyllene oxide and its derivatives” (J Nat Prod, 2006) are described below.

For the experiment, the target named is Cholinesterase (Equus caballus, UniProt P81908). Put plainly: Inhibition of horse serum BuChE by Ellman's method.
Cholinesterase, sequence (P81908 whole entry): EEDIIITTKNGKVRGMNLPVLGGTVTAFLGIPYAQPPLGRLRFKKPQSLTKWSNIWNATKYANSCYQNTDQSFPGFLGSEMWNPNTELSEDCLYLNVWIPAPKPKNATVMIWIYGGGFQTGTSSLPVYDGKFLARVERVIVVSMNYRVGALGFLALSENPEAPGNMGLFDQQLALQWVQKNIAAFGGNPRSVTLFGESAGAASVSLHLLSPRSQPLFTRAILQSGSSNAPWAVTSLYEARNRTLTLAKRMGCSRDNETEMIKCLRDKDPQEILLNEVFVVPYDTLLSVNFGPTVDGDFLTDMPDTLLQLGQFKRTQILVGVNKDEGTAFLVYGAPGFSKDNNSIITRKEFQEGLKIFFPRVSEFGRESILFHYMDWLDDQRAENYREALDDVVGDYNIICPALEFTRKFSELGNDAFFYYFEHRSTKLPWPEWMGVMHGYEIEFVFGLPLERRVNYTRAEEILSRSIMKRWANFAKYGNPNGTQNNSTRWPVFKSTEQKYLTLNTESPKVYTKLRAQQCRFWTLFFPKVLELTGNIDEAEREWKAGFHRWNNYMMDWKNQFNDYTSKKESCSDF
As to `CC1(C)C[C@@H]2[C@@H](CO)CC[C@H]3O[C@]3(C)[C@H](O)C[C@H]21`, the IC50 came out at 155 µM.

On to `C=C1CC[C@H]2O[C@]2(C)CC[C@@H]2[C@@H]1C[C@@]2(C)CO`, for which 189 µM corresponded to half-maximal inhibition (IC50).

On to `C=C1CC[C@@H](O)[C@](C)(O)CC[C@@H]2[C@@H]1CC2(C)C`, for which the IC50 came to 44 µM.

The molecule `C=C1CC[C@@H]2O[C@]2(C)CC[C@@H]2[C@@H]1CC2(C)C` gave an IC50 of 208 µM.

Consider `CC1(C)C[C@H](O)[C@]23CC[C@@H](O)[C@](CO)(CC[C@@H]12)C3`, for which the IC50 is 43.6 µM.

In turn, `CC1(C)C[C@H]2[C@H]1CC[C@]1(C)[C@H](O)CC[C@@]2(O)[C@H]1O` had an IC50 of 23.6 µM.

As to `C=C1CC[C@H]2O[C@]2(C)CC[C@@H]2[C@@H]1C[C@]2(C)CO`, the IC50 was found to be 10.9 µM.

Regarding `CC1(C)C[C@@H]2C(=O)CC[C@H]3O[C@]3(C)C[C@H](O)[C@H]21`, inhibition was half-maximal at 459 µM (IC50).

For the molecule `CC1(C)C[C@@H]2[C@@H](CO)CC[C@H]3O[C@]3(C)CC[C@H]21`, 26.4 µM corresponded to half-maximal inhibition (IC50).

Regarding `CC1(C)C[C@H](O)[C@]23CC[C@@H](O)[C@](C)(CC[C@@H]12)C3`, half-maximal inhibition (IC50) was put at 456 µM.
